Among the data in PubChem BioAssay (NCI) are GI50 and TGI values, retold here.

SMILES strings stand for the structures.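 Grown in 96-well plates, cells were treated for 48 hours with each compound at five concentrations. Insufficient inhibition: endpoint recorded as highest concentration tested. Abbreviation: GI50, concentration required for 50% inhibition of growth. TGI marks complete inhibition of growth.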

Test systems include OVCAR-3 ovarian; SN12C renal; T-47D breast; SNB-75 CNS; EKVX NSCLC; MDA-MB-231 breast; UO-31 renal; HOP-92 NSCLC; DU-145 prostate; A549 NSCLC.
Experiment in all cases: NCI anticancer screen, dose series, 48 h

Consider `O=C(CN1CCN(c2ccc(Cl)cc2)CC1)N1CCN(c2nnc(-c3ccccc3)c(-c3ccccc3)n2)CC1`, for which the GI50 is 8.38 µM with OVCAR-3 ovarian; 8.23 µM in the assay on SN12C renal; 2 µM with T-47D breast; 7.56 µM in the assay with SNB-75 CNS; 7.57 µM in the assay on EKVX NSCLC; > 100 µM in the assay with MDA-MB-231 breast. The GI50 was 4.41 µM with UO-31 renal, 6.68 µM with HOP-92 NSCLC, > 100 µM in the assay with DU-145 prostate and 28.6 µM in the assay with A549 NSCLC. Besides, the TGI with OVCAR-3 ovarian, in the assay on SN12C renal, in the assay with T-47D breast, in the assay with SNB-75 CNS, with EKVX NSCLC and in the assay with MDA-MB-231 breast was > 100 µM throughout. Besides, the TGI in the assay on UO-31 renal, with HOP-92 NSCLC, with DU-145 prostate and in the assay with A549 NSCLC was > 100 µM each time.

`C/C(=N\NC(=O)c1ccncc1)c1ccc(O)cc1O`: the GI50 in the assay with OVCAR-3 ovarian was 4.59 µM; in the assay on SN12C renal, 6.48 µM; with T-47D breast it was 11.4 µM; in the assay on SNB-75 CNS, 14.1 µM; in the assay with EKVX NSCLC, 2.56 µM; in the assay on MDA-MB-231 breast it was 3.88 µM. Also, the GI50 with UO-31 renal is 2.82 µM; in the assay with HOP-92 NSCLC, 17.1 µM; with DU-145 prostate, 3.63 µM; in the assay with A549 NSCLC, 5.87 µM. The TGI with OVCAR-3 ovarian was > 100 µM; with SN12C renal it was > 100 µM; in the assay with T-47D breast it was > 100 µM; in the assay on SNB-75 CNS, 88.2 µM; with EKVX NSCLC it was > 100 µM; in the assay with MDA-MB-231 breast it was > 100 µM. The TGI with UO-31 renal was 20.5 µM; in the assay with HOP-92 NSCLC, > 100 µM; in the assay on DU-145 prostate, > 100 µM; in the assay with A549 NSCLC, > 100 µM.
